In patent US20250186634A1, “METHODS OF TREATING SMALL CELL LUNG CANCER” (Evergreen Discovery, LLC., priority 2023, published 2025):

How the values were obtained:
CCK2R [1] = target: T1, CCK2R (Rattus norvegicus, UniProt P30553); test: Small molecule blocking of PP-F11-FITC fluorescent signal in AR42J cells; type: cell-based; settings: 100 nM PP-F11-FITC, antagonist at 50× the concentration of PP-F11-FITC, FIG. 1A
T1 construct: rat pancreatic AR42J cells, which are known to express CCK2R; endogenous in cells; host or cells: AR42J rat pancreatic cancer cell line
T1 sequence (P30553 1-452): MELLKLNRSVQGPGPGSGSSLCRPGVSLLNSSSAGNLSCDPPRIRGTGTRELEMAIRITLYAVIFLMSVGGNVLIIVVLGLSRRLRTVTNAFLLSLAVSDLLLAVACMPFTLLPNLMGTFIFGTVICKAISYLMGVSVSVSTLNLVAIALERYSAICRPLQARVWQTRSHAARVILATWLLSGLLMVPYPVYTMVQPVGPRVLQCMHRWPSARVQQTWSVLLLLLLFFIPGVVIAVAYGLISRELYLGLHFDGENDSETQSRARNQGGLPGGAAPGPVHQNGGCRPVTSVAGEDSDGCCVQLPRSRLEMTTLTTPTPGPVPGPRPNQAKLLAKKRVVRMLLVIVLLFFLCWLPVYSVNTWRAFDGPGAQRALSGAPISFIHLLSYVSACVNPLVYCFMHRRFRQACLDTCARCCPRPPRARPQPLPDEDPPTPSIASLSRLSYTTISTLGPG
Procedure: Small molecule antagonism of PP-F11 in AR42J and Panc1 cell lines was evaluated by measuring the intensity of a fluorescent (“FL”) signal of FL tagged PP-F11 in the presence or absence of small molecule inhibitors.
Each blocking agent was added in a 50× excess dose concentration to saturate available receptors.
FIG. 1A depicts small molecule blocking experiments performed in rat pancreatic AR42J cells, which are known to express CCK2R. 100 nM of a fluorescently labeled version of PP-F11 (PP-F11-FITC) was added to cell culture in the absence of or the presence of various small molecule CCK2 receptor antagonists at 50× the concentration of fluorescently labeled PP-F11. To determine blocking of PP-F11, the fluorescent intensity of fluorescently labeled PP-F11 was measured in each experiment.

CCK2R [2] = target: T1, CCK2R; test: Uptake of 177Lu-EVG321 by AR42J cells pre-treated with blocking agent (gamma counting); type: cell-based; settings: 2 mM blocking agent (100× excess dose), pre-treated 1 hour, 200 fmols 177Lu-EVG321 per well, two-tailed t-test, FIG. 3A-C
Procedure: AR42J rat pancreatic cell line were used as they express the CCK2 receptor. The AR42J rat pancreatic cancer cell line was cultured in F-12K medium from ATCC with a final concentration of FBS of 20% (v/v). Medium was changed every 2-3 days and a sub-cultivation ratio of 1:3 was used to split the cells. […] 1×10^6AR42J cells were seeded per well in a 6 well plate in 2 mL of media (DMEM: F12+10% Fetal Bovine Serum (FBS)). Cells were stored at 37° C. in an incubator starting at time 0 for 24-48 hours (depending on cell adherence). On the day of experiment, 1 hour before adding the blocking agent, the medium was changed and replaced with 2 mL of fresh media, and incubated at 37° C. degrees for 1 hour. Once the 1-hour incubation was complete, 4 μL of blocking agent was added to each well to provide a final concentration of 2 mM (i.e., 100 times more concentrated than the radioactive molecule). The plate was gently shaken and incubated at 37° C. for 1 hour. […] Samples were then analyzed using a Hidex Gamma counter to measure counts from each tube (gamma peaks of ^177Lu at 113 keV and 208 keV, 5 minutes per tube counting). […] Radioactive uptake was measured as a fraction of the added radiation at time 0 and used to calculate relative binding in counts per minute (CPM). […]

| SMILES | fluorescent signal of PP-F11-FITC compared to experiment A (PP-F11-FITC only); decrease indicates blocking of PP-F11 binding (CCK2R [1]) | specific uptake of 177Lu-EVG321 (relative uptake, CPM) versus cells without blocking agent (CCK2R [2]) |
| --- | --- | --- |
| CSCC[C@H](NC(=O)[C@H](Cc1c[nH]c2ccccc12)NC(=O)CNC(=O)[C@H](Cc1ccc(O)cc1)NC(=O)[C@H](C)NC(=O)[C@@H](CCC(=O)O)NC(=O)[C@@H](CCC(=O)O)NC(=O)[C@@H](CCC(=O)O)NC(=O)[C@@H](CCC(=O)O)NC(=O)[C@@H](CCC(=O)O)NC(=O)[C@H](N)CCC(=O)O)C(=O)N[C@@H](CC(=O)O)C(=O)N[C@@H](Cc1ccccc1)C(N)=O [PP-F11] | decrease in fluorescent signal |  |
| CNc1cccc(NC(=O)N[C@@H]2N=C(c3ccccn3)c3ccccc3N(CC(=O)C(C)(C)C)C2=O)c1 [sograzepide, (R)-1-(1-(3,3-dimethyl-2-oxobutyl)-2-oxo-5-(pyridin-2-yl)-2,3-dihydro-1H-benzo[e][1,4]diazepin-3-yl)-3-(3-(methylamino)phenyl) urea] | decrease in fluorescent signal | significant decrease in the specific uptake |
| CCCN(CCC)C(=O)C(CCC(=O)O)NC(=O)c1ccccc1 (stereo not shown) [proglumide, 4-benzamido-5-(dipropylamino)-5-oxopentanoic acid] |  | did not show as drastic and statistically significant reduction of uptake |
